Legend:
Moesin [1] = molecular target: T1, Moesin (Homo sapiens, UniProt P26038); assay: Biophysical binding of P1 analogs (SAR); conditions: first round of analogs
Source text: Indeed, such experiments defined the known structural interactions between CD44, and Msn based on a co-crystal structure of this protein-protein complex. It was proposed that the binding of Msn through CD44 could be mimicked by small molecules. By performing in silico docking on the CD44 binding pocket, using a virtual screen of 50,000 compounds and 200,000 pharmacophores and guided by FERM domain-peptide co-crystal structures, such experiments identified druggable pockets in these FERM proteins. Top scoring compounds were tested for binding to recombinant purified FERM proteins using several biophysical methods.
• Before engaging in custom synthesis, we searched for additional commercially available analogs to expand SAR at the east part of the P1, keeping the piperidinemethyl-heterocycle constant (FIG. 7, red oval). A total of 4.2M compounds were searched for a match to P1 features. “Drug-like” ZINC database 2019 and ChemBridge catalogue provided P1 analogues commercially available. 18 compounds matching the search criteria were selected and tested for biophysical binding. […] Our next SAR analogs will thus include structural modifications that will explore hydrogen bond patterns and the size of the fragments in the 5-hydroxypiperonyl/pyrazolopyridine area. […]

Moesin [2] = molecular target: T1, Moesin; assay: Cellular Thermal Shift Assay (CETSA); format: cell-based
Source text: CETSA: To further ascertain the binding between Moesin and small compounds, we are currently developing Cellular Thermal Shift Assay (CETSA), a convenient cell-based test for identifying target engagement between ligands (i.e. a drug candidate) and their protein targets (PMID:XXX). CETSA has been previously used to measure the binding of small molecules to Ezrin (another FERM protein similar to Moesin) in a cellular environment (PMID: 33003361). The assay consists of the measurement of the shift in thermal stability of the target protein (Moesin) in the presence of the small molecules. The apparent melting temperature (Tm), observed in the presence or the absence of a bioactive compound, can be evaluated by measuring the persistence of soluble protein at different temperatures. If the compound binds to the protein of interest, a shift in melting temperature is observed.

Moesin [3] = molecular target: T1, Moesin; assay: Saturation transfer difference NMR (STD-NMR) binding to Moesin
Source text: Following in silico docking, we (the inventors) triage binding using saturation transfer difference NMR (STD-NMR) as is routinely done in our laboratory to define binding of small molecules (see, Mollasalehi, N. et al. ACS Chem Biol, doi: 10.1021/acschembio.0c00494 (2020): Francois-Moutal, L. et al. ACS Chem Biol 14, 2006-2013, doi: 10.1021/acschembio.9b00481 (2019): François-Moutal, L. et al. ACS Chem Biol 13, 3000-3010, doi:10.1021/acschembio.8b00745 (2018)) (FIG. 2A). After testing the ability of all compounds to bind to Moesin. […] We then measured the affinity of binding using micro-scale thermophoresis (MST), a technique to quantify biomolecular interactions, based on thermophoresis. Concentration-dependent measurements were done using MST to determine dissociation constant for binding of P1 to Moesin and we obtained Apparent Kd=Xxx±xxx μM. Data are presented as mean±SD (n=3) (FIG. 3).

GST = GST (Schistosoma japonicum, UniProt P08515); assay: STD-NMR binding to control GST; conditions: control protein
HMC3 cells = assay: Flow cytometry of HLA-DR expression in IFNγ-stimulated HMC3 microglial cells; format: cell-based, Human; conditions: HMC3 cells pre-incubated 24 h, then stimulated with IFNγ
Source text: Once we define the binding using purified protein, we validate the binding in cells. We have done this through imaging by using the Lumio™ system for site-specific fluorescent labeling of recombinant proteins in living cells, flow cytometry assays, and cellular thermal shift assay (CETSA). • Lumio™ System Imaging: This recently developed method relies on FLASH (Fluorescein Arsenical Hairpin) technology, which uses biarsenical labeling reagents to bind and detect proteins containing a tetracysteine (TC) motif (Griffin et al., 1998). The biarsenical labeling reagents are nonfluorescent until they bind the TC motif at which time, they become highly fluorescent. Both, a genetically engineered CD44 containing a TC motif, and mCherry-Moesin, were co-transfected into Immortalized Human Microglia (SV40 cell line) (FIG. 5). Ongoing work is being done to optimize this protocol and adapt it for use with small compounds. • Flow Cytometry: Current studies of microglial activation are widely performed to study neuroinflammation and test small compounds and their anti-inflammatory properties. IFNγ was be used to activate macrophage response in HMC3 cells (Human microglial cell line, PMID: 30200996), while flow cytometry was employed in combination with small compounds. […] Reactive microglia expressing the histocompatibility glycoprotein HLA-DR were detected using flow cytometry. […]

T1 sequence (P26038 whole entry, the tested form may be a part): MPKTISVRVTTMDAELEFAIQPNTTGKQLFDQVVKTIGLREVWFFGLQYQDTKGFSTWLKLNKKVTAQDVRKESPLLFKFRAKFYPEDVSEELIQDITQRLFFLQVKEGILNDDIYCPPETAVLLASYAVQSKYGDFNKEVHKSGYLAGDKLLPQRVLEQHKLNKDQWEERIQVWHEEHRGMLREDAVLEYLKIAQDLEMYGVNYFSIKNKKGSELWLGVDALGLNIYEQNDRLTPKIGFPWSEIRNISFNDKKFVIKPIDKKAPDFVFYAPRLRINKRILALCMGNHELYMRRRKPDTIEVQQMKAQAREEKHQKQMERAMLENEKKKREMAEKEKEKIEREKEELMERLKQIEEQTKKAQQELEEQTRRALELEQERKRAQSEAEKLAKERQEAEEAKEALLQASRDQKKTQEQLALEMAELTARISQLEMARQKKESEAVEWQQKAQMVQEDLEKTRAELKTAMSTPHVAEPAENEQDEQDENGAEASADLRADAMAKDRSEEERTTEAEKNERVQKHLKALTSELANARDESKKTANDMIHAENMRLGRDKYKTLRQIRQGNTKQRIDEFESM
Chain of GST (P08515 2-218 limits assumed): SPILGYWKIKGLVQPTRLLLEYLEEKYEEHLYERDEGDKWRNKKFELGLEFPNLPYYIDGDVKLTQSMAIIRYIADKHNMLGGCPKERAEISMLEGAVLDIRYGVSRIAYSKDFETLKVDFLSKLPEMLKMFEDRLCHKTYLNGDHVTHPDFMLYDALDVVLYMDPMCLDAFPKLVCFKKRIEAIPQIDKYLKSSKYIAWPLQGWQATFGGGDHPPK

binding relative to P1 (Moesin [1]) | shift in melting temperature of Moesin (Moesin [2]) | binding to Moesin (Moesin [3]) | binding to the control GST (GST) | Structure (SMILES) | HLA-DR level (HMC3 cells)
improved binding | – | – | – | CC(Oc1ccc2c(c1)OCO2)c1nc(CC2CCN(C)CC2)no1 (centres unmarked) [Plsar3] | –
– | discrete shift | binding specifically | did not bind | CN1CCC(Cc2noc(CCc3nc4cccnc4n3C)n2)CC1 [P1] | reduced

From patent US20240207244A1, “COMPOSITIONS AND METHODS FOR TREATING NEURODEGENERATIVE DISORDERS THROUGH INHIBITION OF CD44 AND FERM PROTEIN INTERACTION” (Arizona Board of Regents on Behalf of the University of …, priority 2021, published 2024)
